For data set [1], the target named is T1, TGFβ2 (Homo sapiens, UniProt P61812).
T1 sequence (P61812 303-414 limits assumed): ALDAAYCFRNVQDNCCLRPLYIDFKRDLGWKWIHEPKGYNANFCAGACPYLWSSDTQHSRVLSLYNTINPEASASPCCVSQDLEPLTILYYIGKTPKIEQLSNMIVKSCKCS
Kind of data set: Nitrocellulose-filter partitioning binding of 32P-labeled aptamer to TGFβ-2 protein. More on the design: A synthetic polynucleotide encoding full length human TGFβ2 mature protein was cloned into pRSET E. coli expression vector; made in house. On the procedure:
Dissociation constants for the binding of aptamers to purified human or rodent TGFβ-2 protein were determined by nitrocellulose-filter partitioning using ^32P-labeled RNA. In vitro transcribed RNA was treated with calf-intestinal alkaline phophatase (New England Biolabs) to remove 5′-triphosphates, then radio-labeled by incubation with γ-^32P-ATP and T4 polynucleotide kinase (New England Biolabs). Unincorporated label was removed by gel-filtration, and the RNAs were further purified by polyacrylamide gel electrophoresis (PAGE). Purified ^32P-labeled aptamer in water was refolded just prior to use by heating for 3 min at 95° C., followed by a 10 minute room-temperature incubation in binding buffer (50 mM Hepes, pH 7.4, 1 mM MgCl2, 1 mM CaCl2, 3 mM KCl, 140 mM NaCl, 0.1 mg/ml BSA, 0.01 mg/ml tRNA). The binding reactions (100 μL) were initiated by the addition of aptamer (≦0.1 nM) to excess TGFβ-2 protein (0.2-100 nM), followed by 10-30 minute equilibration at room temperature.
Nitrocellulose-filter partitioning was performed on Minifold® I, 96-well Dot-Blot manifolds (Schleicher & Schuell). Protein-bound aptamer and residual free aptamer were captured, respectively, on pre-wetted Protran nitrocellulose (Schleicher & Schuell) and Hybond-P polyvinylidene difluoride (Amersham Biosciences) filters by vacuum aspiration, and quantified by PhosphorImager (Amersham Biosciences). The proportion of protein-bound aptamer at each TGFβ-2 concentration was plotted as the ratio of counts-per-minute on the Protran nitrocellulose filter (CPMNC) to the sum of CPM on the Protran and Hybond-P filters (CPMtotal). Estimates of dissociation constants (KD) were obtained from a fit of the concentration of TGFβ-2 (i.e., [TGFβ-2])-dependent data to a standard binding isotherm: CPMNC/CPMtotal=Cmax/(1+KD/[TGFβ2]total), where Cmax equals the maximum observed value of CPMNC/CPMtotal at saturating [TGFβ-2], likely reflecting the proportion of properly-folded aptamer that is competent to recognize TGFβ-2.

A further data set addresses T2, human TGFβ2 (Homo sapiens, UniProt P61812).
T2 construct: two forms of mature TGFβ2 were generated, native and N-terminal his-tagged versions, in E. coli; made in house; host or cells: E. coli; added as soluble protein to MLEC
T2 sequence (P61812 303-414): T1 sequence (P61812 303-414 limits assumed)
Kind of data set: MLEC proliferation assay (reversal of TGFβ2-mediated inhibition, BrdU). It counts as cell-based. On the procedure:
MLECs were plated at 2,000 cells per well and incubated at 37° C. for 4 hours. Aptamer and TGFβ2 were added at the indicated concentrations for 16 hours at 37° C. Cell proliferation was measured using BrdU incorporation. BrdU assay was performed as recommended by the manufacturer (Roche Diagnostics).
MLEC Assay. The mink lung epithelial cell proliferation assay is performed over two days. On day 1:1) media is aspirated off from Mink Lung Epithelial Cells (MLEC); 2) the MLEC are washed with 10 ml 1×PBS; 3) 3 ml Trypsin is added and Trypsinize for 3 min at 37° C.; 4) quench with 10 ml 0.5% FBS media; 5) spin at 1000 rpm for 3.30 min; 6) aspirate off supernatant; 7) resuspend pellet in 10 ml 0.5% FBS media; 8) Count 10 μl cell suspension; 9) adjust cell density to 80,000 cells/ml; 10) add 50 μl of cells/well to black bottomed 96-well plates (4000 cells/well); pipet up and down during plating process to avoid settling of cells and uneven plating; 11) incubate cells at 37° C. in 5% CO2 for 4 hrs to allow adherence of cells; 12) add 25 μl of aptamer (or media, or other test reagent, such as for example, an antibody), preferably the outer wells are not used for treated cells; 13) add 25 μl of TGFβ2 (typically 25 pg/ml); and 14) incubate cells at 37° C. in 5% CO2 overnight.
On day 2:1) mix 20 μl BrdU with 2 ml 0.5% FBS media; 2) add 10 μl of BrdU mixture/well; 3) incubate cells at 37° C. in 5% CO2 for 3 hrs; 4) remove media and blot plates dry on paper towels; 5) add 200 μl/well FixDenat solution and incubate for 30 min at room temperature (RT); 6) remove FixDenat solution and blot plates dry on paper towels; 7) add 100 μl /well anti-BrdU POD solution and incubate for 90 min at RT; 8) remove anti-BrdU POD solution and blot plates dry on paper towels; 9) wash plates 3× with […] washing solution with 5 min RT incubations and blot plates dry on paper towels; 10) add 100 μl /well substrate solution and incubate for 3 min at RT in dark; and 11) read plates using PSP Luciferace 1 program on TopCount (Packard Bioscience Co., Downers Grove, Ill.).

The test system of the next data set is PDGF AB and BB. Kind of data set: PDGF binding (Kd). More on the design: species or system human. Particulars: read-out: Kd, PDGF AB and BB.
A short description of data set [2]: Pharmacokinetics via subconjunctival administration. It is filed as in vivo, mice. Particulars: for AUC (0-t) / Cmax / MRT / TLAST / t1/2 / tmax / Vd: subconjunctival, 1 mg/eye bilaterally; for detection in the aqueous humor: after subconjunctival administration. On the procedure:
A pharmacokinetic study was performed to determine the pharmacokinetics of ARC81, ARC117 and ARC119, TGFβ2 aptamers having the sequences of SEQ ID NOs:4, 9 and 11, respectively), via subconjunctival administration in mice. These aptamers were formulated at a concentration of 10 mg/ml. Samples were collected at 0, 0.5, 1, 2, 6, 12, 24, 48 and 96 hours post-administration. FIGS. 21A, 21B and 21C show the aqueous humor and/or plasma concentration of each aptamer (in nM) through 50 hours post dose via subconjunctival administration.

Data set [3] deals with T1, TGFβ2. Put plainly: Dot blot binding of doped reselection aptamers to TGFβ2. On the set-up: For bio-chemical characterization of these aptamers, two forms of mature TGFβ2 were generated, native and N-terminal his-tagged versions, in E. coli. The following applies: CW128_103. The procedure: TGFβ2 was serially diluted in DPBS containing 0.2 mg/ml BSA and 0.2 mg/ml tRNA. ^32P-labeled RNA (<20 pM) were incubated with TGFβ2 at room temperature for 30 min. Samples were pipetted with a multichannel pippetor onto a multiwell manifold holding layers of pre-wetted 0.45 micron nitrocellulose, hybond membrane, 3MM filter paper (the order is from top to bottom), aspirated, and washed 3× with DPBS (containing tRNA). All three filters were air dried, exposed to phosphorimager plate, analyzed by ImageQuant.

{PEG30K} = 30 kDa polyethylene glycol, attached through the amine; {3T} = T cap; {PEG20K} = 20 kDa polyethylene glycol; [invdT] = inverted (3'-3') thymidine; {NH2} = amine group; m = 2'-O-methyl; r = 2'-OH (RNA); f = 2'-fluoro

PDGF AB and BB, sequence (P01127 82-190 limits assumed): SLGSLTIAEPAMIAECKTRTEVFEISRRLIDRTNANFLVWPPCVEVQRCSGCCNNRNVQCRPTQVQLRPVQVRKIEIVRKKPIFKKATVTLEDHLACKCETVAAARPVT

As for “5′-NH2-GGAGGfUfUAfUfUAfCAGAGfUfCfUGfUAfUAGfCfUGfUAfCfUfCfC-3T-3′ (GGAGGUUAUUACAGAGUCUGUAUAGCUGUACUCC; 2'-fluoro at CU, RNA at AG, 5' {NH2}, 3' {3T}, backbone not given here) [ARC78]”, in the data set with TGFβ2 [1] (32P-labeled aptamer, nitrocellulose-filter partitioning, fit to Equation 1, read-out: Kd), the equilibrium dissociation constant (Kd) turned out to be 4 nM. The “inhibition of the antiproliferative effects of TGFβ2” value with human TGFβ2 (50 pg/ml of TGFβ2, BrdU incorporation) is on record as “inhibit the antiproliferative effects of 50 pg/ml of TGFβ2”.
For “5′-TdAdCTdCdAdGdGdGdCdAdCTdGdCdAdAdGdCdAdATTdGTdGdGTdCdCdCdAdATdGdGdGdCTdGdAdGTdA-3T-3′ (TACTCAGGGCACTGCAAGCAATTGTGGTCCCAATGGGCTGAGTA; 3' [invdT], sugars by position and backbone not given here; further chemistry not fully specified) [ARC125]”, the Kd in the data set with PDGF AB and BB is 0.1 nM.
As to “5′-TdGdGdGdAdGdGdGdCdGdCdGTTdCTTdCdGTdGdGTTdAdCTTTTdAdGTdCdCdCdG-3T-3′ (TGGGAGGGCGCGTTCTTCGTGGTTACTTTTAGTCCCG; 3' [invdT], sugars by position and backbone not given here; further chemistry not fully specified) [ARC123]”, the Kd in the data set on PDGF AB and BB was 0.1 nM.
Take “5′-[PEG20K]-NH2-mGmGmGmGfUfUAfUfUmAfCmAmGmAmGfUfCfUGfUAfUAmGfCfUmGfUmAfCfCfC-3T-3′ (GGGGUUAUUACAGAGUCUGUAUAGCUGUACCC; sugars from the 5' end mmmmffrffmfmmmmfffrfrfrmffmfmfff, 5' {PEG20K}-{NH2}, 3' {3T}, backbone not given here; PEG attached through 5' amine linker) [ARC117]”: in data set [2] (Aq Humour), the “AUC (0-t)” value was 87.6 nM·h, the Cmax was 22.9 nM, the MRT is reported as 3.62 h and the TLAST is reported as 24 h. Further, in data set [2] (Aq Humour), the t1/2 came out at 4.33 h and the tmax was 1 h. Besides, in data set [2] (PLASMA), the “AUC (0-t)” value is listed as 1,122.1 nM · h, the Cmax was 145 nM, the MRT is on record as 9.22 h and the TLAST stood at 48 h. In data set [2] (PLASMA), this substance yielded a Vd of 1760 mL, a t1/2 of 7.40 h and a tmax of 6 h. Besides, the “detection in the aqueous humor” value in data set [2] was “detected in the aqueous humor”.
As to “5′-[PEG30K]-NH2-mGmGmGmGfUfUAfUfUmAfCmAmGmAmGfUfCfUGfUAfUAmGfCfUmGfUmAfCfCfC-3T-3′ (GGGGUUAUUACAGAGUCUGUAUAGCUGUACCC; sugars from the 5' end mmmmffrffmfmmmmfffrfrfrmffmfmfff, 5' {PEG30K}-{NH2}, 3' {3T}, backbone not given here) [ARC119]”, in data set [2] (Aq Humour), the “AUC (0-t)” value is 133.2 nM·h, the Cmax worked out at 28.4 nM, the MRT is 12.80 h and the TLAST stood at 48 h. In data set [2] (Aq Humour), the t1/2 came out at 17.52 h and the tmax was 0.5 h. In data set [2] (PLASMA), the “AUC (0-t)” value is listed as 13,380.5 nM · h, the Cmax was found to be 721 nM, the MRT is 17.28 h and the TLAST came out at 48 h. In data set [2] (PLASMA), this substance came in with a Vd of 137 mL, a t1/2 of 6.94 h and a tmax of 12 h. Also, the “detection in the aqueous humor” value in data set [2] is recorded as “detected in the aqueous humor”.
With “5′-dCdAdCdAdGdGdCTdAdCdGdGdCdAdCdGTdAdGdAdGdCdATdCdAdCdCdATdGdATdCdCTdGTdG-3T-3′ (CACAGGCTACGGCACGTAGAGCATCACCATGATCCTGTG; 3' [invdT], sugars by position and backbone not given here; further chemistry not fully specified) [ARC124]”, in the data set on PDGF AB and BB, the Kd came to 0.1 nM.
As for “5′-mGmGmAmGmGfUfUAfUfUmAfCmAmGmAmGfUfCfUGfUAfUAmGfCfUmGfUmAfCfUfCfc-3T-3′ (GGAGGUUAUUACAGAGUCUGUAUAGCUGUACUCC; sugars from the 5' end mmmmmffrffmfmmmmfffrfrfrmffmfmffff, 3' {3T}, backbone not given here) [ARC79]”, in the data set with TGFβ2 [1] (read-out: KD), the Kd was determined as 1 nM. In addition, the IC50 with human TGFβ2 (read-out: cell IC50) turned out to be 10 nM.
Take “AAGGAGfUAfUfUAfUAGAGfUAfUGfUAfUAGfCfUAfUAfCfCAfU[3T] (AAGGAGUAUUAUAGAGUAUGUAUAGCUAUACCAU; 2'-fluoro at CU, RNA at AG, 3' {3T}, backbone not given here) [ARC281, minimized S5CR12-15]”: in the data set with TGFβ2 [3], the Kd stood at 1.42 nM.
Substance “AGGGAAfUAfUfUAfUAGAGfUAfUGfUAfUAGfCfUAfUAfCfCAfU[3T] (AGGGAAUAUUAUAGAGUAUGUAUAGCUAUACCAU; 2'-fluoro at CU, RNA at AG, 3' {3T}, backbone not given here) [ARC282, minimized AMX(71)_A8]” registered a Kd with TGFβ2 [3] of 0.62 nM.
Same read-out and setting: in the case of “AfCAGAGfUAfUfUAfUAGAGfUAfUGfUAfUAGfCfUAfUAfCfUGfUfC[3T] (ACAGAGUAUUAUAGAGUAUGUAUAGCUAUACUGUC; 2'-fluoro at CU, RNA at AG, 3' {3T}, backbone not given here) [ARC283, minimized S5CR8-45]” it was 1.27 nM; in that of “AfUAGAGfCAfUfUAfUAGAGfUAfUGfUAfUAGfCfUAfUAfCfUAfU[3T] (AUAGAGCAUUAUAGAGUAUGUAUAGCUAUACUAU; 2'-fluoro at CU, RNA at AG, 3' {3T}, backbone not given here) [CW128.10.F, minimized AMX(71)_C11]”, 3.66 nM.

By Kd is commonly meant the constant that tells how readily two partners part at equilibrium. A word on the IC50: it is the concentration at which inhibition is half-maximal.
